Test results reported in US20090123907A1 (priority 2004, published 2009).
Where “and” joins values, the source holds several entries; their conditions need not be identical. Equal entries are not always repeated.

Legend:
[1] = tested on: clotting enzyme activation (D-dimers); test: D-dimer test (DimerTest latex agglutination) for cryptic activation in citrated plasma; assay type: biochemical
Experimental: The samples were divided into four 1 ml aliquots. To three of the sample aliquots, sufficient concentrated citrate solution was added to achieve 1%, 1.5% or 2% weight/volume citrate, respectively, while the fourth aliquot acted as the control.
As a “worst case” scenario to detect activation, the aliquots were incubated at 21° C. for a maximum of ten days. Each aliquot was assayed daily for the presence of D-dimers using the DimerTest latex agglutination assay (American Diagnostica, Stamford, Conn.). The results are shown in Table 1 where the number of days to observable D-dimers is listed for each aliquot. […] At day six of incubation, 41.2% (14) of the control aliquots were positive for the presence of D-dimers. By day seven, 100% (34) of the normal citrate (0.4%) aliquots were positive for D-dimers.

clot formation = test: Clotting times (PT, PTT) of anticoagulated whole blood; assay type: biochemical
Experimental: (§1) In this experiment whole blood (an aliquot of which clotted within 10 minutes without anticoagulant) was modified by adding a number of different anticoagulant compositions. Sodium citrate was used as an anticoagulant at 0.65%, 0.75% and 0.9% by weight. These are all higher citrate levels than the usual 0.4% by weight. Amino acid citrates (lysine or arginine) were used at 0.65%, 0.75% and 0.9% by weight based on the weight of the citric acid. The amino acid counterion was used in sufficient quantity to adjust the pH as explained above.

red blood cells = test: Red blood cell integrity during storage at 4° C.; assay type: cell-based; parameters: MCV Day 20 / MCV Day 33: unit not given here; conditions: for RBC Day 1: whole blood; for MCV Day 20 / MCV Day 33: whole blood stored at 4° C.
Experimental: as §1
To judge red cell condition the blood was counted and various other measurements were taken initially and after 20 and 33 days of storage at 4° C. Apparent initial/differences in RBC counts are due to dilution caused by adding extra anticoagulant. Mean cell volume (MCV) is a red cell index that is a useful measure of red cell health. […] It is believed that a citrate level of at least about 1.0% by weight (i.e., more than two times the usual amount) is necessary to ensure against all activation of plasma proteins. […] On the other hand, amino acid citrates, which are very effective anticoagulants, are also effective at preventing red cell damage.

Compound	number of days to observable D-dimers ([1]; 0.4% Citrate, plasma at 21° C., maximum ten days)	aliquots positive for the presence of D-dimers ([1]; 0.4% citrate control aliquots, day six of incubation)	aliquots positive for D-dimers ([1]; 0.4% citrate, by day seven)	aliquots that showed D-dimers by day ten ([1]; additional citrate (1%, 1.5%, 2%))	PT (4 hrs at RT) (clot formation; anticoagulant 0.65 wgt %)	PTT (4 hrs at RT) (clot formation; anticoagulant 0.65 wgt %)	PT (4 hrs at RT) (clot formation; anticoagulant 0.75 wgt %)	PTT (4 hrs at RT) (clot formation; anticoagulant 0.75 wgt %)	PT (4 hrs at RT) (clot formation; anticoagulant 0.90 wgt %)	PTT (4 hrs at RT) (clot formation; anticoagulant 0.90 wgt %)	RBC Day 1 (red blood cells; anticoagulant 0.65 wgt %)	MCV Day 20 (red blood cells; anticoagulant 0.65 wgt %)	MCV Day 33 (red blood cells; anticoagulant 0.65 wgt %)	RBC Day 1 (red blood cells; anticoagulant 0.75 wgt %)	MCV Day 20 (red blood cells; anticoagulant 0.75 wgt %)	MCV Day 33 (red blood cells; anticoagulant 0.75 wgt %)	RBC Day 1 (red blood cells; anticoagulant 0.90 wgt %)	MCV Day 20 (red blood cells; anticoagulant 0.90 wgt %)	MCV Day 33 (red blood cells; anticoagulant 0.90 wgt %)
O=C(O)CC(O)(CC(=O)O)C(=O)O [Citrate]	6 days and 7 days and 5 days	41.2%	100%	None															
N=C(N)NCCC[C@H](N)C(=O)O.O=C(O)CC(O)(CC(=O)O)C(=O)O [Arg Citrate, arginine citrate]					15.8 s	36.8 s	20.2 s	39.9 s	55 s	56.8 s	5.77 10^6/μl	93.1	93.5	6.45 10^6/μl	92.6	93.6	6.77 10^6/μl	91.5	92.4
